# Test results: US20260365653A1, “IRREVERSIBLE MUTEGFR INHIBITORS” (Bayer Aktiengesellschaft, priority 2022, published 2026)
# Key:
# [1] = target: T1, mutEGFR (D770_N771insSVD) (Homo sapiens, UniProt P00533, DUP768-770); assay: Exon20-Mutant-EGFR (D770_N771insSVD) kinase assay (TR-FRET); type: biochemical; conditions: mutEGFR (D770_N771insSVD) kinase assay IC50, Table 2a; D770_N771insSVD; 2 mM ATP
# T1 construct: GST-EGFR #3 (SVD between D770 and N771); made in house; host or cells: Sf9 insect cells (baculovirus)
# BA/F3 (insSVD) cells = assay: Ba/F3-EGFR-insSVD cell survival assay (Cell Titer-Glo); type: cell-based; conditions: Table 3a, cell survival, Cell Titer-Glo, with 10 ng/ml EGF, without IL-3
# Protocol: Cellular Data Description (WT, insSVD, insSVD T790M) 293T cells from ATCC were transfected with pBABEpuro expression constructs for WT EGFR or EGFR-insSVD, or EGFR-insSVD T790M, and pCL-Eco packaging vector using Fugene-6 transfection reagent from Promega. Plates were incubated at 37° C. for 48 h. Retrovirus was harvested by filtering the media supernatant through a 0.45 μm filter.
# Ba/F3 cells purchased from DSMZ were grown in RPMI+10% FBS+10 ng/ml IL-3 and infected with filtered retroviral supernatant at a 1:2 dilution. Polybrene was added to a concentration of 8 μg/mL, plates were spun for 90 min, and incubated for 16 h at 37° C. 2 μg/mL puromycin was added to the infected cells 24 h after infection and cells were continually grown in the presence of puromycin and 10 ng/ml IL-3. Following stably expressing Ba/F3 cell lines were generated: Ba/F3-EGFR-WT, Ba/F3-EGFR-insSVD, Ba/F3-EGFR-insSVD T790M, (Ba/F3-vector-control).
# For cell survival assays, Ba/F3 cells were grown to a density of 1-2 million cells per mL, spun down and resuspended in media without IL-3, and replated at a concentration of 200,000-500,000 cells per mL. The cells ectopically expressing WT EGFR, EGFR-insSVD, or EGFR-insSVD T790M were plated with 10 ng/ml Millipore Culture grade EGF. The cells ectopically expressing pBABEpuro empty vector were plated with 10 ng/mL IL-3.
# 2 days later, cells were plated in 50 µL in a 384 well plate at a concentration of 4000 cells per well for cells assayed in the absence of IL-3 and 2000 cells per well for cells assayed in the presence of IL-3. 100 nL of compound was added to each well using a 100 nL pin head, and plates were incubated at 37° C. for 48 h.
# Cell viability was measured by adding 20 μL of Cell Titer-Glo Luminescent Cell Viability Reagent diluted 1:3 in PBS. Plates were sealed with Perkin Elmer Top-Seal, inverted several times to mix, and immediately centrifuged at 1000 rpm for 2 min. Plates were incubated in low light conditions for 8-10 min and luminescence was measured.
# [2] = target: T2, mutEGFR (D770_N771insNPG, T790) (Homo sapiens, UniProt P00533, INS770NPG/T790M); assay: mutEGFR (D770_N771insNPG, T790) kinase assay; type: biochemical; conditions: Table 2a, D770_N771insNPG
# T2 construct: exact insNPG construct not described; in-house EGFR proteins were N-terminal GST fusions from baculovirus/insect cells (borders R669-A1210 given only for WT, insSVD, insASV)
# Excerpt: The different EGFR proteins used in the biochemical kinase activity inhibition assays were generated inhouse by expression in insect cells using Baculo Virus system and subsequent purification as described in the following paragraphs.
# The cDNAs encoding the various protein sequences from human EGFR human (P00533) were optimized for expression in eukaryotic cells and synthesized by the GeneArt Technology at Life Technologies.
# T1 sequence (P00533 with tags, fused parts or gaps DUP768-770): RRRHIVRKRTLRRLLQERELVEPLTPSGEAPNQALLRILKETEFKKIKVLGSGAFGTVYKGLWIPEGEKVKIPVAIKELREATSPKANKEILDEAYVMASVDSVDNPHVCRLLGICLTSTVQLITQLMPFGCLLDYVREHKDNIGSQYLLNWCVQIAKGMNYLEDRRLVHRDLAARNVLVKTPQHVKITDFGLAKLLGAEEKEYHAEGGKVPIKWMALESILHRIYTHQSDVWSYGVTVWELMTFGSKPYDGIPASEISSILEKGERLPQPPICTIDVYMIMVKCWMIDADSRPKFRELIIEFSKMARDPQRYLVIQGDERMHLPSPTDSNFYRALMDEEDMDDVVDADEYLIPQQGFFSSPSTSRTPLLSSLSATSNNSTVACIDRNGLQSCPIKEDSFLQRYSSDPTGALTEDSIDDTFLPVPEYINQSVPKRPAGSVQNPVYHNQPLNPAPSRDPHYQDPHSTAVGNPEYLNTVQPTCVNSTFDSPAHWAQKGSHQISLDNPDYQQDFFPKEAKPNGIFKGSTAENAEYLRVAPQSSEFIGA
# T2 sequence (P00533 with tags, fused parts or gaps INS770NPG/T790M limits assumed): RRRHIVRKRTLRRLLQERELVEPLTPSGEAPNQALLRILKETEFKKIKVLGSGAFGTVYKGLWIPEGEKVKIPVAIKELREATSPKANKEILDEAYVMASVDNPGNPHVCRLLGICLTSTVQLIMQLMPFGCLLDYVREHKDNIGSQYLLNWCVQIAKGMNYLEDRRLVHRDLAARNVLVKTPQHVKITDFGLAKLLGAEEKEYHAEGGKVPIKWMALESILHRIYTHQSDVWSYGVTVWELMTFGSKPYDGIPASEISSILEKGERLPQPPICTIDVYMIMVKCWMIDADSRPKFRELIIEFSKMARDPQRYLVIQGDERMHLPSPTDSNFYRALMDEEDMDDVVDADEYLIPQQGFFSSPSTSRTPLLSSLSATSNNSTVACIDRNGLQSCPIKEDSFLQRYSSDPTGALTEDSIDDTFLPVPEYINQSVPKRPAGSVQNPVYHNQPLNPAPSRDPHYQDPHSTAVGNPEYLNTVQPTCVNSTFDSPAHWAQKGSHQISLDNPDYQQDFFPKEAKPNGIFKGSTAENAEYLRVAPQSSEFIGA
Compound,IC50 [1],IC50 [2],"IC50 (BA/F3 (insSVD) cells; Mus musculus, BaF3, 48 h)",IC50 (BA/F3 (insSVD) cells; 48 h)
"C=CC(=O)N1CCn2nc(-c3ccc(OC)cc3)c(-c3ccncc3)c2C1C (racemic) [Example 241, 1-[(RS)-2-(4-methoxyphenyl)-4-methyl-3-(pyridin-4-yl)-6,7-dihydropyrazolo[1,5-a]pyrazin-5(4H)-yl]prop-2-en-1-one]",3.88 nM,12.3 nM,77.1 nM,
"C=CC(=O)N1Cc2c(-c3ccncc3)c(-c3ccc(F)cc3)nn2C(C(=O)NC)C1 (single isomer, unassigned; isomer 1) [Example 205, 5-acryloyl-2-(4-fluorophenyl)-N-methyl-3-(pyridin-4-yl)-4,5,6,7-tetrahydropyrazolo[1,5-a]pyrazine-7-carboxamide (isomer 1)]",137 nM,144 nM,824 nM,
"C=CC(=O)N1Cc2c(-c3ccncc3)c(-c3ccc(F)cc3)nn2C(C(=O)N(C)C)C1 (single isomer, unassigned; isomer 1) [Example 206, 5-acryloyl-2-(4-fluorophenyl)-N,N-dimethyl-3-(pyridin-4-yl)-4,5,6,7-tetrahydropyrazolo[1,5-a]pyrazine-7-carboxamide (isomer 1)]",55.3 nM,82.9 nM,600 nM,
"C=CC(=O)N1CCn2nc(-c3ccc(F)cc3)c(-c3ccnc4[nH]ccc34)c2C1C (single isomer, unassigned; isomer 1) [Example 249, 1-(2-(4-fluorophenyl)-4-methyl-3-(1H-pyrrolo[2,3-b]pyridin-4-yl)-6,7-dihydropyrazolo[1,5-a]pyrazin-5(4H)-yl) prop-2-en-1-one (isomer 1)]",372 nM,57.5 nM,98.7 nM,
"CC1c2c(-c3ccnc4[nH]ccc34)c(-c3ccc(F)cc3)nn2CCN1C(=O)/C=C/CN(C)C (single isomer, unassigned; isomer 1) [Example 255, 4-(dimethylamino)-1-[2-(4-fluorophenyl)-4-methyl-3-(1H-pyrrolo[2,3-b]pyridin-4-yl)-6,7-dihydropyrazolo[1,5-a]pyrazin-5(4H)-yl]but-2-en-1-one (isomer 1)]",3180 nM,9610 nM,296 nM,
"C=CC(=O)N1CCn2nc(-c3ccc(C(F)(F)F)cc3)c(-c3ccnc4[nH]ccc34)c2C1C (single isomer, unassigned; isomer 1) [Example 258, 1-(4-methyl-3-(1H-pyrrolo[2,3-b]pyridin-4-yl)-2-(4-(trifluoromethyl)phenyl)-6,7-dihydropyrazolo[1,5-a]pyrazin-5(4H)-yl) prop-2-en-1-one (isomer 1)]",100 nM,1070 nM,,82.6 nM
"C=CC(=O)N1CCn2nc(-c3ccc(C(F)(F)F)cc3)c(-c3ccnc4[nH]cc(C)c34)c2C1C (single isomer, unassigned; isomer 1) [Example 259, 1-(4-methyl-3-(3-methyl-1H-pyrrolo[2,3-b]pyridin-4-yl)-2-(4-(trifluoromethyl)phenyl)-6,7-dihydropyrazolo[1,5-a]pyrazin-5(4H)-yl) prop-2-en-1-one (isomer 1)]",683 nM,13300 nM,296 nM,
"C=CC(=O)N1CCn2nc(-c3ccc(F)cc3)c(-c3ccnc4[nH]cc(C)c34)c2C1C (single isomer, unassigned; isomer 1) [Example 262, 1-(2-(4-fluorophenyl)-4-methyl-3-(3-methyl-1H-pyrrolo[2,3-b]pyridin-4-yl)-6,7-dihydropyrazolo[1,5-a]pyrazin-5(4H)-yl) prop-2-en-1-one (isomer 1)]",1620 nM,396 nM,,452 nM
"CC1c2c(-c3ccnc4[nH]ccc34)c(-c3ccc(C(F)(F)F)cc3)nn2CCN1C(=O)/C=C/CN(C)C (single isomer, unassigned; isomer 1) [Example 264, (E)-4-(dimethylamino)-1-(4-methyl-3-(1H-pyrrolo[2,3-b]pyridin-4-yl)-2-(4-(trifluoromethyl)phenyl)-6,7-dihydropyrazolo[1,5-a]pyrazin-5(4H)-yl) but-2-en-1-one (isomer 1)]",765 nM,1130 nM,,128 nM

# Compounds with a lower IC50 [1], results first:
IC50 [1],IC50 [2],Compound,"IC50 (BA/F3 (insSVD) cells; Mus musculus, BaF3, 48 h)",IC50 (BA/F3 (insSVD) cells; 48 h)
2.94 nM,9.96 nM,"C=C(F)C(=O)N1Cc2c(-c3ccncc3)c(-c3ccc(Cl)cc3F)nn2CC1C (racemic) [Example 237, 1-[(RS)-2-(4-chloro-2-fluorophenyl)-6-methyl-3-(pyridin-4-yl)-6,7-dihydropyrazolo[1,5-a]pyrazin-5(4H)-yl]-2-fluoroprop-2-en-1-one]",126 nM,
1.57 nM,2.21 nM,"C=C(F)C(=O)N1Cc2c(-c3ccncc3)c(-c3ccc4ccsc4c3)nn2CC1C (racemic) [Example 238, 1-[(RS)-2-(1-benzothiophen-6-yl)-6-methyl-3-(pyridin-4-yl)-6,7-dihydropyrazolo[1,5-a]pyrazin-5(4H)-yl]-2-fluoroprop-2-en-1-one]",68.7 nM,
1.39 nM,4.74 nM,"C=CC(=O)N1CCn2nc(-c3ccc(F)cc3)c(-c3ccncc3)c2C1C (racemic) [Example 239, 1-[(RS)-2-(4-fluorophenyl)-4-methyl-3-(pyridin-4-yl)-6,7-dihydropyrazolo[1,5-a]pyrazin-5(4H)-yl]prop-2-en-1-one]",38.7 nM,
0.437 nM,1.5 nM,"C=CC(=O)N1CCn2nc(-c3ccc(Cl)cc3F)c(-c3ccncc3)c2C1C (racemic) [Example 240, 1-[(RS)-2-(4-chloro-2-fluorophenyl)-4-methyl-3-(pyridin-4-yl)-6,7-dihydropyrazolo[1,5-a]pyrazin-5(4H)-yl]prop-2-en-1-one]",54 nM,
0.445 nM,0.839 nM,"C=CC(=O)N1CCn2nc(-c3ccc4sccc4c3)c(-c3ccncc3)c2C1C (racemic) [Example 242, 1-[(RS)-2-(1-benzothiophen-5-yl)-4-methyl-3-(pyridin-4-yl)-6,7-dihydropyrazolo[1,5-a]pyrazin-5(4H)-yl]prop-2-en-1-one]",48.2 nM,
0.395 nM,0.656 nM,"C=CC(=O)N1CCn2nc(-c3ccc4cc[nH]c4c3)c(-c3ccncc3)c2C1C (racemic) [Example 243, 1-[(RS)-2-(1H-indol-6-yl)-4-methyl-3-(pyridin-4-yl)-6,7-dihydropyrazolo[1,5-a]pyrazin-5(4H)-yl]prop-2-en-1-one]",97.8 nM,
0.749 nM,1.99 nM,"CC1c2c(-c3ccncc3)c(-c3ccc(Cl)cc3F)nn2CCN1C(=O)/C=C/CN(C)C (racemic) [Example 244, (2E)-1-[(RS)-2-(4-chloro-2-fluorophenyl)-4-methyl-3-(pyridin-4-yl)-6,7-dihydropyrazolo[1,5-a]pyrazin-5(4H)-yl]-4-(dimethylamino)but-2-en-1-one]",168 nM,
0.0813 nM,0.151 nM,"C=CC(=O)N1Cc2c(-c3ccncc3)c(-c3ccc4sccc4c3)nn2C(C)C1 (racemic) [Example 280, 1-[(7RS)-2-(1-benzothiophen-5-yl)-7-methyl-3-(pyridin-4-yl)-6,7-dihydropyrazolo[1,5-a]pyrazin-5(4H)-yl]prop-2-en-1-one]",6.82 nM,
0.17 nM,0.366 nM,"C=CC(=O)N1Cc2c(-c3ccncc3)c(-c3ccc(Cl)cc3)nn2C(C)C1 (racemic) [Example 281, 1-[(7RS)-2-(4-chlorophenyl)-7-methyl-3-(pyridin-4-yl)-6,7-dihydropyrazolo[1,5-a]pyrazin-5(4H)-yl]prop-2-en-1-one]",9.77 nM,
